Test systems include M14 melanoma; HOP-62 NSCLC; K-562 leukemia; OVCAR-8 ovarian; A498 renal; CAKI-1 renal; SK-OV-3 ovarian; HT29 colon; SF-539 CNS; RPMI-8226 leukemia.
Common to all, as to assay: inhibition of tumour cell growth, NCI panel, 48 h

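Briefly, cells in 96-well plates were exposed to five compound concentrations for 48 h, and endpoints were estimated by linear interpolation. Abbreviation: GI50, concentration required for 50% inhibition of growth. TGI: total growth inhibition.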

13 molecules from PubChem BioAssay (NCI) can be followed below.

As for `CC[n+]1ccc2c(c1)C(=O)c1nccc3c1c-2nc1ccccc13`, the GI50 is 0.943 µM with M14 melanoma; 0.0618 µM in the test with HOP-62 NSCLC; 3 µM in the test on K-562 leukemia; 1.04 µM in the test on OVCAR-8 ovarian; 0.874 µM with A498 renal; 2.1 µM in the test on CAKI-1 renal. For the same molecule, the GI50 was 0.799 µM in the test on SK-OV-3 ovarian, 4.15 µM in the test on HT29 colon, 0.489 µM with SF-539 CNS and 6.49 µM in the test with RPMI-8226 leukemia. Moreover, the TGI is 4.38 µM with M14 melanoma; 1.19 µM in the test on HOP-62 NSCLC; 22.2 µM with K-562 leukemia; 6.47 µM in the test with OVCAR-8 ovarian; 6.13 µM in the test with A498 renal; more than 33.3 µM in the test with CAKI-1 renal. The TGI in the test on SK-OV-3 ovarian turned out to be 4.83 µM; in the test with HT29 colon, 23.1 µM; with SF-539 CNS, 1.47 µM; with RPMI-8226 leukemia it was 21.7 µM.

Turning to `COc1cccc(-c2nn(-c3ccccc3)cc2-c2ccnc(NCCCNS(=O)(=O)c3cccc(F)c3)c2)c1`, the GI50 in the test on M14 melanoma is 3.3 µM; with HOP-62 NSCLC, 10.4 µM; with K-562 leukemia it was 3.31 µM; with OVCAR-8 ovarian, 3.93 µM; with A498 renal it was 3.52 µM; with CAKI-1 renal, 6.16 µM. For the same molecule, the GI50 was 3.18 µM in the test with SK-OV-3 ovarian, 2.87 µM with HT29 colon and 2.91 µM in the test with RPMI-8226 leukemia. Moreover, the TGI with M14 melanoma, in the test on HOP-62 NSCLC, with K-562 leukemia, with OVCAR-8 ovarian, in the test on A498 renal and in the test on CAKI-1 renal was more than 100 µM each time. Further, the TGI is more than 100 µM in the test with SK-OV-3 ovarian, 18.8 µM in the test on HT29 colon and 9.92 µM in the test on RPMI-8226 leukemia.

Consider `COc1ccccc1NC(=O)c1ccc(/C=C/C(=O)c2nccn2C)cc1`, for which the GI50 in the test on M14 melanoma is 0.536 µM; with HOP-62 NSCLC, 0.762 µM; in the test with K-562 leukemia, 0.588 µM; in the test on OVCAR-8 ovarian it was 0.916 µM; in the test on A498 renal, 0.555 µM; in the test with CAKI-1 renal it was 0.453 µM. The GI50 was 1.06 µM with SK-OV-3 ovarian, 0.644 µM in the test on HT29 colon, 0.495 µM in the test on SF-539 CNS and 0.429 µM in the test on RPMI-8226 leukemia. Besides, the TGI was found to be 1.31 µM with M14 melanoma; 2.37 µM in the test with HOP-62 NSCLC; 11.6 µM in the test on K-562 leukemia; 10.1 µM in the test with OVCAR-8 ovarian; 1.49 µM in the test with A498 renal; 1.32 µM in the test on CAKI-1 renal. The TGI in the test with SK-OV-3 ovarian turned out to be 10.7 µM; with HT29 colon, 1.78 µM; with SF-539 CNS, 1.07 µM; in the test with RPMI-8226 leukemia, 1.46 µM.

On to `CCCCCCCCCCCCOC1C(CNCC2OC3OC(C)(C)OC3C2NC(=O)Nc2ccc(C(=O)OCC)cc2)OC2OC(C)(C)OC21` (centres undefined), for which the GI50 with M14 melanoma is 1.77 µM; in the test with HOP-62 NSCLC it was 3.55 µM; with K-562 leukemia, 2.95 µM; in the test with OVCAR-8 ovarian it was 2.16 µM; with A498 renal, 12.8 µM; in the test with CAKI-1 renal, 6.74 µM. Also, the GI50 in the test on SK-OV-3 ovarian was 10.4 µM; in the test on HT29 colon, 1.71 µM; with SF-539 CNS, 1.79 µM; with RPMI-8226 leukemia it was 2.13 µM. Besides, the TGI was 3.38 µM in the test on M14 melanoma; 13.5 µM in the test on HOP-62 NSCLC; more than 100 µM in the test on K-562 leukemia; 4.3 µM with OVCAR-8 ovarian; 25.5 µM in the test with A498 renal; 19.8 µM in the test on CAKI-1 renal. In addition, the TGI turned out to be 23.3 µM in the test with SK-OV-3 ovarian, 3.56 µM in the test with HT29 colon, 3.52 µM in the test with SF-539 CNS and 4.53 µM in the test with RPMI-8226 leukemia.

On to `CN1CCN(Cc2ccc(NC(=O)c3cncc(C#Cc4cnc(N)c5ccccc45)c3)cc2C(F)(F)F)CC1`, for which the GI50 in the test on M14 melanoma was 0.133 µM; in the test on HOP-62 NSCLC, 0.324 µM; with K-562 leukemia, 0.00333 µM; in the test with OVCAR-8 ovarian, 0.473 µM; in the test with A498 renal, 0.299 µM; in the test with CAKI-1 renal, 0.271 µM. The GI50 was 0.199 µM with SK-OV-3 ovarian, 0.28 µM in the test on HT29 colon, 0.38 µM with SF-539 CNS and 0.441 µM in the test on RPMI-8226 leukemia. The TGI worked out at 0.551 µM in the test on M14 melanoma; 1.25 µM in the test on HOP-62 NSCLC; 0.524 µM with K-562 leukemia; 1.46 µM with OVCAR-8 ovarian; 1.14 µM with A498 renal; 0.7 µM with CAKI-1 renal. Moreover, the TGI was found to be 0.638 µM with SK-OV-3 ovarian, 1.29 µM in the test on HT29 colon, 0.792 µM in the test with SF-539 CNS and 1.41 µM in the test on RPMI-8226 leukemia.

With `CN=C1NC(=O)/C(=C/c2ccc3ncccc3c2)S1`, the GI50 is 9.6 µM in the test on M14 melanoma; 10.3 µM in the test with HOP-62 NSCLC; 13.7 µM with K-562 leukemia; 7.73 µM in the test on OVCAR-8 ovarian; 3.86 µM in the test with A498 renal; 4.6 µM with CAKI-1 renal. Moreover, the GI50 was 7.76 µM in the test on SK-OV-3 ovarian, 9.14 µM with HT29 colon, 5.88 µM in the test on SF-539 CNS and 12.1 µM in the test with RPMI-8226 leukemia. Further, the TGI is more than 25 µM in the test with M14 melanoma; more than 25 µM with HOP-62 NSCLC; more than 25 µM in the test on K-562 leukemia; more than 25 µM with OVCAR-8 ovarian; 13.7 µM in the test with A498 renal; more than 20.9 µM in the test on CAKI-1 renal. The TGI with SK-OV-3 ovarian was 24.8 µM; with HT29 colon, more than 25 µM; in the test with SF-539 CNS, more than 25 µM; in the test with RPMI-8226 leukemia, more than 25 µM.

As for `O=C1NC(=O)C2C(=O)NC(=O)C1C2(c1ccccc1)c1ccc(Cl)cc1` (centres undefined), the TGI in the test on M14 melanoma, in the test with HOP-62 NSCLC, in the test with K-562 leukemia, in the test on OVCAR-8 ovarian, with A498 renal and in the test on CAKI-1 renal was more than 100 µM throughout. Moreover, the TGI in the test with SK-OV-3 ovarian, in the test with HT29 colon, in the test on SF-539 CNS and with RPMI-8226 leukemia was more than 100 µM each time.

On to `CN(C)c1ccc2c(c1)oc(=O)c1ccccc12`, for which the TGI in the test with M14 melanoma was 26.5 µM; in the test with HOP-62 NSCLC, 65.6 µM; in the test with K-562 leukemia, 26.9 µM; in the test with OVCAR-8 ovarian it was 25.4 µM; in the test on A498 renal, 33 µM; in the test with CAKI-1 renal, 26.1 µM. Moreover, the values for the TGI with HT29 colon, in the test with SF-539 CNS and with RPMI-8226 leukemia were 26.1 µM, 35.5 µM and 28.8 µM, respectively.

With `CCn1c(=O)c2c3cc(O)ccc3oc2c2ccc(O)cc21`, the TGI is more than 100 µM with M14 melanoma; more than 100 µM in the test with HOP-62 NSCLC; more than 100 µM with K-562 leukemia; more than 100 µM in the test with OVCAR-8 ovarian; 55.5 µM in the test with A498 renal; more than 100 µM in the test on CAKI-1 renal. For the same molecule, the TGI in the test with SK-OV-3 ovarian was more than 100 µM; in the test with HT29 colon, 77.5 µM; in the test on SF-539 CNS, 73 µM.

`O=C(O)c1cc(S(=O)(=O)N=NC=C2c3ccccc3N(O)c3ccccc32)ccc1O`: the TGI in the test with M14 melanoma is 79.2 µM; in the test on HOP-62 NSCLC, 37.5 µM; with K-562 leukemia it was more than 100 µM; in the test on OVCAR-8 ovarian, more than 100 µM; in the test on A498 renal, 41 µM; with CAKI-1 renal, more than 100 µM. Also, the TGI with SK-OV-3 ovarian is 92.2 µM; in the test with HT29 colon, more than 100 µM; with RPMI-8226 leukemia, 76.6 µM.

Take `COc1cc2c(cc1O)[C@H](Cc1ccc(Oc3cc(C[C@H]4c5cc(OC)c(OC)cc5CCN4C)ccc3OC)cc1)NCC2`: the TGI was determined as 3.56 µM with M14 melanoma; 19.1 µM in the test with K-562 leukemia; 27.8 µM in the test on OVCAR-8 ovarian; 28.3 µM in the test with A498 renal; 19.8 µM in the test with CAKI-1 renal; 19.4 µM with HT29 colon. In addition, the TGI was 22.8 µM in the test with SF-539 CNS and 46.8 µM in the test with RPMI-8226 leukemia.

As to `O=C(/C=C(\[O-])c1ccccc1)CCCCCCC(=O)/C=C(\[O-])c1ccccc1.O=C(/C=C(\[O-])c1ccccc1)CCCCCCC(=O)/C=C(\[O-])c1ccccc1.O=C(/C=C(\[O-])c1ccccc1)CCCCCCC(=O)/C=C(\[O-])c1ccccc1.[La+3].[La+3]`, the GI50 in the test with M14 melanoma, with HOP-62 NSCLC, with K-562 leukemia, with OVCAR-8 ovarian, with A498 renal and in the test on CAKI-1 renal was more than 50 µM in each case. Besides, the GI50 with SK-OV-3 ovarian, with HT29 colon and in the test with RPMI-8226 leukemia was more than 50 µM in each case. The TGI with M14 melanoma, in the test on HOP-62 NSCLC, with K-562 leukemia, in the test on OVCAR-8 ovarian, in the test with A498 renal and with CAKI-1 renal was more than 50 µM throughout. The TGI in the test with SK-OV-3 ovarian, in the test with HT29 colon and in the test with RPMI-8226 leukemia was more than 50 µM each time.

With `CC(=O)c1ccc(N(/C=C/C(=O)C(F)(F)F)CC(=O)c2ccc(Cl)c(Cl)c2)cc1`, the GI50 was 13.3 µM with M14 melanoma; 15.3 µM in the test on HOP-62 NSCLC; 16.1 µM in the test on OVCAR-8 ovarian; 14.5 µM in the test on A498 renal; 16.4 µM in the test with CAKI-1 renal; 18.1 µM in the test with SK-OV-3 ovarian. Also, the GI50 in the test on HT29 colon is 24.4 µM; in the test with SF-539 CNS it was 20.5 µM; in the test on RPMI-8226 leukemia it was 9.64 µM. Also, the TGI in the test with M14 melanoma came out at 26.7 µM; with HOP-62 NSCLC, 28.7 µM; with OVCAR-8 ovarian, 31.4 µM; in the test on A498 renal, 28.2 µM; with CAKI-1 renal it was 33.1 µM; in the test on SK-OV-3 ovarian, 38.9 µM. The figures for the TGI in the test with HT29 colon, in the test on SF-539 CNS and with RPMI-8226 leukemia were more than 100 µM, 36.6 µM and 36.6 µM, respectively.
